{"source": "PubChem BioAssay AID294", "about": "(DTP/NCI, 2004)", "tested_on": "MX-1 breast xenograft, nude mice, tumor weight change", "assay": "NCI In Vivo Anticancer Drug Screen. Data for tumor model Human Mammary Carcinoma MX-1 Xenograft (subcutaneous) in NU/NU Swiss (nude) mice", "conditions": "endpoint: optimum tumor weight change, schedule: Q04DX003 (ip), higher = larger tumour", "protocol": "The antitumor activity of compounds was measured in mice bearing transplantable tumors. Survival or tumor size were measured and the results are expressed as the measurement made in the treated group (T) divided by the measurement made in the vehicle treated control group (C). The tumor model used in this assay is Human Mammary Carcinoma MX-1 Xenograft (subcutaneous) in NU/NU Swiss (nude) mice", "key": {"[1]": {"conditions": "dose: 25.0 mg/kg/injection, vehicle: Klucel (hydroxypropylcellulose) (HPC)"}, "[2]": {"conditions": "dose: 50.0 mg/kg/injection, vehicle: Klucel (hydroxypropylcellulose) (HPC)"}, "[3]": {"conditions": "dose: 100.0 mg/kg/injection, vehicle: Klucel (hydroxypropylcellulose) (HPC)"}, "[4]": {"conditions": "dose: 50.0 mg/kg/injection, vehicle: saline with Tween-80"}, "[5]": {"conditions": "dose: 100.0 mg/kg/injection, vehicle: saline with Tween-80"}, "[6]": {"conditions": "dose: 400.0 mg/kg/injection, vehicle: saline with Tween-80"}}, "data": [{"smiles": "C=CC(=O)NCNC(=O)C=C", "values": [{"measurement": "T/C", "setting": "dose: 100.0 mg/kg/injection, vehicle: suspension in saline", "value": "101 % of control"}, {"measurement": "T/C", "setting": "dose: 200.0 mg/kg/injection, vehicle: suspension in saline", "value": "84 % of control"}]}, {"smiles": "CS(=O)(=O)OCCN(CCOS(C)(=O)=O)c1ccc(C=Nc2ccc(-c3csc(COc4ccccc4)n3)cc2)cc1", "values": [{"measurement": "T/C", "setting": "[1]", "value": "45 % of control"}, {"measurement": "T/C", "setting": "[2]", "value": "64 % of control"}, {"measurement": "T/C", "setting": "[3]", "value": "99 % of control"}]}, {"smiles": "CC(C)CCCCCCCCCCCCC(=O)NCC(=O)NC1C(C)OC(Nc2ncnc3nc[nH]c23)C(O)C1O", "note": "(stereo not drawn)", "values": [{"measurement": "T/C", "setting": "dose: 3.13 mg/kg/injection, vehicle: distilled water + Tween-80", "value": "102 % of control"}]}, {"smiles": "CCN(CC)CCCC(C)Nc1c2ccc(Cl)cc2nc2ccc(OC)cc12", "note": "(stereo not drawn)", "values": [{"measurement": "T/C", "setting": "[4]", "value": "95 % of control"}, {"measurement": "T/C", "setting": "[5]", "value": "88 % of control"}]}, {"smiles": "CCCC(=O)OCc1cc(=O)n(C)c2c3c4c(cc12)c(C)cc(=O)n4CO3", "values": [{"measurement": "T/C", "setting": "[2]", "value": "48 % of control"}, {"measurement": "T/C", "setting": "[3]", "value": "70 % of control"}]}, {"smiles": "O=S(CCCl)CCCl", "values": [{"measurement": "T/C", "setting": "[1]", "value": "75 % of control"}, {"measurement": "T/C", "setting": "[3]", "value": "34 % of control"}]}, {"smiles": "O=Cc1ccc(O)c(O)c1", "values": [{"measurement": "T/C", "setting": "[4]", "value": "63 % of control"}, {"measurement": "T/C", "setting": "[6]", "value": "89 % of control"}]}, {"smiles": "CNC(=O)ON(C(C)=O)C(=O)NC", "values": [{"measurement": "T/C", "setting": "dose: 12.5 mg/kg/injection, vehicle: saline", "value": "81 % of control"}, {"measurement": "T/C", "setting": "dose: 25.0 mg/kg/injection, vehicle: saline", "value": "108 % of control"}]}, {"smiles": "CCOC(=O)C1C2OC(=O)C(C(=O)C2CN(CCCl)CCCl)C1C1CC=C(CC2=CCC(C3C4C(=O)OC(C(CN(CCCl)CCCl)C4=O)C3C(=O)OCC)CC2)CC1", "note": "(stereo not drawn)", "values": [{"measurement": "T/C", "setting": "[1]", "value": "58 % of control"}, {"measurement": "T/C", "setting": "[3]", "value": "35 % of control"}]}, {"smiles": "COc1cccc2c1C(=O)c1c(O)c3c(c(O)c1C2=O)C[C@@](O)(C(=O)CO)C[C@@H]3OC1CC(N)CC(C)O1", "note": "(stereo partly drawn)", "values": [{"measurement": "T/C", "setting": "dose: 0.13 mg/kg/injection, vehicle: water", "value": "93 % of control"}, {"measurement": "T/C", "setting": "dose: 0.25 mg/kg/injection, vehicle: water", "value": "112 % of control"}, {"measurement": "T/C", "setting": "dose: 0.5 mg/kg/injection, vehicle: water", "value": "97 % of control"}, {"measurement": "T/C", "setting": "dose: 0.75 mg/kg/injection, vehicle: water", "value": "93 % of control"}, {"measurement": "T/C", "setting": "dose: 1.0 mg/kg/injection, vehicle: water", "value": "65 % of control"}, {"measurement": "T/C", "setting": "dose: 1.5 mg/kg/injection, vehicle: water", "value": "78 % of control"}, {"measurement": "T/C", "setting": "dose: 3.0 mg/kg/injection, vehicle: water", "value": "63 % of control"}]}, {"smiles": "O=CC(S)CO", "note": "(stereo not drawn)", "values": [{"measurement": "T/C", "setting": "dose: 200.0 mg/kg/injection, vehicle: saline", "value": "61 % of control"}]}, {"smiles": "CN1N=C(N)c2cn(C3OC(COP(=O)(O)O)C(O)C3O)c3ncnc1c23", "note": "(stereo not drawn)", "values": [{"measurement": "T/C", "setting": "dose: 25.0 mg/kg/injection, vehicle: water", "value": "102 % of control"}]}, {"smiles": "CC1(CO)C(O)CCC2(C)C1CCC1CC3CC12CCC3(O)CO", "note": "(stereo not drawn)", "values": [{"measurement": "T/C", "setting": "[5]", "value": "50 % of control"}, {"measurement": "T/C", "setting": "dose: 200.0 mg/kg/injection, vehicle: saline with Tween-80", "value": "61 % of control"}, {"measurement": "T/C", "setting": "[6]", "value": "54 % of control"}]}, {"smiles": "O=C1N(Cl)C(=O)C(c2ccc(Cl)cc2)(c2ccc(Cl)cc2)N1Cl", "values": [{"measurement": "T/C", "setting": "[5]", "value": "98 % of control"}]}, {"smiles": "O=[N+]([O-])/C=C\\c1ccc2c(c1)OCO2", "values": [{"measurement": "T/C", "setting": "[2]", "value": "83 % of control"}, {"measurement": "T/C", "setting": "dose: 200.0 mg/kg/injection, vehicle: Klucel (hydroxypropylcellulose) (HPC)", "value": "81 % of control"}]}]}
